The subject of the first assay is HIV. Put plainly: HIV (MT4 assay), in vitro antiviral activity.
Conditions: not given
The format is cell-based.
What is called IC50 is the concentration that inhibits the measured activity by half. “4-fluorodibenzothiazepin-11(10H)-one-5,5-dioxide [15(iv)]” yielded an IC50 of 1.8 µM.

The assay is the same for the next values; noted with them: Human immunodeficiency virus 1.
Compound `O=C1Nc2ccccc2Sc2c(F)cccc21` [14(iv), 4-Fluoro-10,11-dihydrobenzo[b,f][1,4]thiazepin-11-one] showed an IC50 of 1.1 µM.
In the case of `CN1C(=O)c2cccc(F)c2Sc2ccccc21` [17(i), 4-Fluoro-10-methyl-10,11-dihydrobenzo[b,f][1,4] thiazepin-11-one], the IC50 worked out at 0.7 µM.
On to `O=C1Nc2ccccc2S(=O)(=O)c2ccccc21` [Example 5, 10,11-Dihydrodibenzo[b,f][1,4]thiazepin-11-one-5,5-dioxide], for which the IC50 is 13 µM.
In the case of `O=C1Nc2ccccc2Sc2c1cccc2C(F)(F)F` [Example 7, 4-Trifluoromethyl-10,11-dihydrodibenzo[b,f][1,4]thiazepin-11-one], the IC50 came out at 2.5 µM.
In the case of `CN1C(=O)c2cccc(C(F)(F)F)c2Sc2ccccc21` [Example 10, 10-Methyl-4-trifluoromethyl-10,11-dihydrodibenzo[b,f][1,4]thiazepin-11-one], the IC50 was found to be 2.8 µM.
On the same count and under the same terms, with `CSc1cccc2c1Sc1ccccc1NC2=O` [Example 19, 4-Thiomethyl-10,11-dihydrodibenzo[b,f][1,4]thiazepin-11-one] the figure was 2.3 µM.
For `COc1ccc2c(c1)S(=O)(=O)c1ccccc1C(=O)N2` [Example 22, 7-Methoxy-10,11-dihydrodibenzo[b,f][1,4]thiazepin-11-one-5,5-dioxide], the IC50 is 12.8 µM.

Values taken from patent US5607929A, “Antiviral dibenzothiazepinone derivatives” (Glaxo Wellcome Inc., priority 1991, dated 1997).
